One block for each compound: values may come before it.
What was measured:
[1] = biological target: T1, Polyunsaturated fatty acid 5-lipoxygenase (Homo sapiens, UniProt P09917); experiment: Inhibition of 5-lipooxygenase (unknown origin)
T1 sequence (P09917 whole entry): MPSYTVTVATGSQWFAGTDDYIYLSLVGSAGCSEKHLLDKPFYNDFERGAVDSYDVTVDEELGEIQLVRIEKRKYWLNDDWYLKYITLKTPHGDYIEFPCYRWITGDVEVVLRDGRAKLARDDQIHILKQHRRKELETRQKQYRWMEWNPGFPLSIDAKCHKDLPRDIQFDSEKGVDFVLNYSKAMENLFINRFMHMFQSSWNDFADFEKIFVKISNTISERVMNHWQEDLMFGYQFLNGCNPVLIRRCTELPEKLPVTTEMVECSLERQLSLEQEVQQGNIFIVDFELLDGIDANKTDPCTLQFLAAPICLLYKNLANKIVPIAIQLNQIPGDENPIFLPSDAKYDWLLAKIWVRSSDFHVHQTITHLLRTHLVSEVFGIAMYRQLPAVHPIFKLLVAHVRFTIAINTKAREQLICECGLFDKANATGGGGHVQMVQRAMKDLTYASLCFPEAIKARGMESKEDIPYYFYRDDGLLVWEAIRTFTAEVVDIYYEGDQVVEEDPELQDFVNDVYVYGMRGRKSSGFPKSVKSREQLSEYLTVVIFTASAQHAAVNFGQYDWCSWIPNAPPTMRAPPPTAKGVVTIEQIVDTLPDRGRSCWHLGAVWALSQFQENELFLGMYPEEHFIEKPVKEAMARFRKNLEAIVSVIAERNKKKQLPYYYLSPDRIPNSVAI

[2] = biological target: T2, Prostaglandin E synthase (Homo sapiens, UniProt O14684); experiment: Inhibition of recombinant human microsomal PGES1 using PGH2 as substrate preincubated for 15 mins followed by substrate addition measured after 5 mins by enzyme immunoassay
T2 sequence (O14684 whole entry): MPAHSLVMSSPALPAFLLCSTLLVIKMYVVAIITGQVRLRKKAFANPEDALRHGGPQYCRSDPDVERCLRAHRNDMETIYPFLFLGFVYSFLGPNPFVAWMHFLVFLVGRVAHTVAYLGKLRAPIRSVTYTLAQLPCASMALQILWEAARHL

[3] = biological target: T2, Prostaglandin E synthase; experiment: Inhibition of microsomal PGES1 in ILbeta/TNFalpha-stimulated human A549 cells using PGH2 as substrate preincubated for 15 mins followed by substrate addition measured after 1 min by LC-MS/MS analysis; assay type: cell-based
[4] = biological target: T3, Prostaglandin E synthase (Mus musculus) (UniProt Q9JM51); experiment: Inhibition of microsomal PGES1 in mouse J774 cells assessed as reduction of LPS-induced PGE2 production inhibition at 100 uM by radioimmuno assay in presence of radio labelled PGE2; assay type: cell-based
T3 sequence (whole entry): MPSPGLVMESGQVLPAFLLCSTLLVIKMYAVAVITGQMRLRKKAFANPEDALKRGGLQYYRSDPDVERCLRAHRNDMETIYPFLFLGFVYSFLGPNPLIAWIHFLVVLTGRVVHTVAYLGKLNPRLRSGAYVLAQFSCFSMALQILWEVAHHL

[5] = biological target: T2, Prostaglandin E synthase; experiment: Inhibition of microsomal PGES1 (unknown origin)
[6] = biological target: T2, Prostaglandin E synthase; experiment: Inhibition of microsomal PGES1 in ILbeta-stimulated human A549 cells using PGH2 as substrate preincubated for 15 mins followed by substrate addition measured after 1 min by RP-HPLC analysis; assay type: cell-based
[7] = biological target: T4, Prostaglandin G/H synthase 2 (Homo sapiens, UniProt P35354); experiment: Inhibition of COX2 in IL1beta-induced human A549 cells using arachidonic acid as substrate assessed as 6-keto PGF1a formation preincubated for 10 mins followed by substrate addition measured after 30 mins by enzyme immunoassay; assay type: cell-based
T4 sequence (P35354 whole entry): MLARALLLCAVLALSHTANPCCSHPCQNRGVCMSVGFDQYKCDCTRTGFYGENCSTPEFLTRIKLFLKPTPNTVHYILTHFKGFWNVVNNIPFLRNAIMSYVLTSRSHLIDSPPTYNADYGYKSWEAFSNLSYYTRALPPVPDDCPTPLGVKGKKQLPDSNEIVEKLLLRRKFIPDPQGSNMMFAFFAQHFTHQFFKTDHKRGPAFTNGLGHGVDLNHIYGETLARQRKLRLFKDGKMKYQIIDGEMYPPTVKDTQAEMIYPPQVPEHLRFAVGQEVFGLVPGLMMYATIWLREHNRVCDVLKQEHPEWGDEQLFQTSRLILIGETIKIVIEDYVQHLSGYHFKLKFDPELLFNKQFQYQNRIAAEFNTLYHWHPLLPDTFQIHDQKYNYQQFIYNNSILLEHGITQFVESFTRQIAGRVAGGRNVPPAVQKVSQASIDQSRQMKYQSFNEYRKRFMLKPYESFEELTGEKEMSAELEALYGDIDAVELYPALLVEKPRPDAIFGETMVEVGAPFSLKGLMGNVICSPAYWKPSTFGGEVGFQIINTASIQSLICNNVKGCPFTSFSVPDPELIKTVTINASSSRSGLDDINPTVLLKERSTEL

[8] = Inhibition of recombinant rat microsomal PGES1 using PGH2 as substrate incubated for 90 secs by MDA-TBA assay
[9] = biological target: T2, Prostaglandin E synthase; experiment: Inhibition of human microsomal PGES1 using PGH2 as substrate incubated for 90 secs by MDA-TBA assay
[10] = biological target: Prostaglandin G/H synthase 1 (Homo sapiens, UniProt P23219); experiment: Inhibition of COX1 (unknown origin)
[11] = Inhibition of recombinant rat microsomal PGES1 using PGH2 as substrate after 75 secs by MDA-TBA assay
[12] = biological target: T2, Prostaglandin E synthase; experiment: Inhibition of human microsomal PGES1 using PGH2 as substrate incubated after 75 secs by MDA-TBA assay

Prostaglandin G/H synthase 1, sequence (P23219 whole entry): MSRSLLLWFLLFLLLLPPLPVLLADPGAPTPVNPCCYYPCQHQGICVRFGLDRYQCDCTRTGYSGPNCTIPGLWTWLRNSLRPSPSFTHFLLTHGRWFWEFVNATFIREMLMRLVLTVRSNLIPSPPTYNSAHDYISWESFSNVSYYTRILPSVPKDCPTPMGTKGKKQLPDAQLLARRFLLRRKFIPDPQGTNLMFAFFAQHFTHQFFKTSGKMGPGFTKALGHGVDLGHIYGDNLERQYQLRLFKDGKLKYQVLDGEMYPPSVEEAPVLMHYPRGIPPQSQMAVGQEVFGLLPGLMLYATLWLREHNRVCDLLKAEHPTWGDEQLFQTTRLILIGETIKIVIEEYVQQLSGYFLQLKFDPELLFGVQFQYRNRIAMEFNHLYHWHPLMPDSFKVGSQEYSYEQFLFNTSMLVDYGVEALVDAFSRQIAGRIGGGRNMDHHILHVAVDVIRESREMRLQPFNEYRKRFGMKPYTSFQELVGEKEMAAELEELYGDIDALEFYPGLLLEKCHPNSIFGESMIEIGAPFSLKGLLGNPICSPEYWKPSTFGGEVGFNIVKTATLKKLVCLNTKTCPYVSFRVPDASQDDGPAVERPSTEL

IC50 [1]: 2000 nM
SMILES: CCCCCCC(Sc1nc(Cl)cc(Nc2cccc(C)c2C)n1)C(=O)O (stereo unspecified)

IC50 [2]: 900 nM
SMILES: O=C(Nc1ccc2c(c1)c1ccccc1n2CCO)c1ccccc1C(F)(F)F

IC50 [3]: 18100 nM
SMILES: COc1cc(C(=O)NS(=O)(=O)c2ccccc2C)ccc1Cc1cn(C)c2ccc(NC(=O)OC3CCCC3)cc12 [ZAFIRLUKAST]

inhibition [4]: 93.1%
SMILES: O=C1c2c(O)cc(O)cc2OC(c2ccc(O)cc2)C1O (stereo unspecified)

IC50 ([5]; read-out: pIC50 (converted)): 3.98 nM
SMILES: CC(=O)c1ccccc1-c1cc2c(C)c(CC(C)(C)C(=O)O)n(Cc3ccc(Cl)cc3)c2cc1F

IC50 [6]: 800 nM
SMILES: CCc1oc(=O)c(C(c2ccccc2)c2c(O)c(CC=C(C)C)c(O)c(C(C)=O)c2O)c(O)c1C (stereo unspecified)

IC50 [6]: 1000 nM
SMILES: CC(=O)c1c(O)c(CC=C(C)C)c(O)c(C(c2ccccc2)c2c(O)cc(C)oc2=O)c1O (stereo unspecified)

IC50 [7]: ≥ 30000 nM
SMILES: CCc1oc(=O)c(Cc2c(O)c(CC=C(C)C)c(O)c(C(C)=O)c2O)c(O)c1C [ARZANOL]

IC50 [8]: 900 nM | IC50 [9]: 90 nM
SMILES: Cc1cc2nc(N3CCC(C(=O)NC4CCCC4)CC3)n(C(C)C)c2cc1C

IC50 [6]: 400 nM | IC50 [10]: > 30000 nM
SMILES: CCCCCc1cc(OC(=O)c2c(O)cc(O)cc2CCCCC)cc(O)c1C(=O)O

IC50 ([5]; read-out: pIC50 (converted)): 5.01 nM
SMILES: Cc1c(CC(C)(C)C(=O)O)n(Cc2ccc(Cl)cc2)c2cc(F)c(-c3ccccc3Cl)cc12

IC50 [6]: 430 nM | IC50 [10]: > 30000 nM
SMILES: CCCCCC(=O)Cc1cc(O)cc2c1C(=O)Oc1cc(O)c(C(=O)O)c(CCCCC)c1O2 [PHYSODIC ACID]

inhibition [4]: 94.3%
SMILES: COc1cc(O)ccc1C1Oc2cc(O)cc(O)c2C(=O)C1O (stereo unspecified)

IC50 [6]: 1150 nM | IC50 [10]: > 30000 nM
SMILES: CCCCCC(=O)Cc1cc(O)cc(O)c1C(=O)Oc1cc(O)c(C(=O)O)c(CCCCC)c1

IC50 ([5]; read-out: pIC50 (converted)): 6.92 nM
SMILES: COc1ccccc1-c1cc2c(C)c(CC(C)(C)C(=O)O)n(Cc3ccc(Cl)cc3)c2cc1F

SMILES: CC(C)c1cc2c(c(O)c1O)[C@@]1(C(=O)O)CCCC(C)(C)[C@@H]1CC2 [CARNOSIC ACID]
IC50 [6]: 5000 nM

IC50 ([5]; read-out: IC50): 200 nM
SMILES: O=C(Nc1cccc2ccccc12)c1cccc(NC(=O)c2ccccc2Cl)c1

IC50 ([5]; read-out: IC50): 600 nM
SMILES: Cc1ccc(C)c(-c2cc(C(F)(F)F)nn2-c2ccc(S(N)(=O)=O)cc2)c1 [DIMETHYL CELECOXIB]

IC50 [6]: 5000 nM
SMILES: CC(C)c1cc2c(c(O)c1O)[C@@]13CCCC(C)(C)[C@@H]1C[C@@H]2OC3=O [CARNOSOL]

IC50 [6]: 200 nM
SMILES: COc1cc(/C=C/C(=O)CC(=O)/C=C/c2ccc(O)c(OC)c2)ccc1O [CURCUMIN]

IC50 [11]: 620 nM | IC50 [12]: 1800 nM
SMILES: CC1=NN(C(N)=S)C(=O)/C1=N/Nc1cccc(Br)c1

— ChEMBL document CHEMBL3769386, “Targeting microsomal prostaglandin E2synthase-1 (mPGES-1): the development of inhibitors as an alternative to non-steroidal anti-inflammatory drugs (NSAIDs)” (Medchemcomm, 2015)
